According to patent US20250214978A1, “AT2R AGONIST” (WUHAN HUMANWELL INNOVATIVE DRUG RESEARCH AND DEVELOPMENT …, priority 2022, published 2025):

Experiments:
AT2R = AT2R (Homo sapiens (Human), UniProt P50052); experiment: Binding assay of compounds to AT2R (Tag-lite HTRF ligand binding kit); conditions: 1 hour incubation at room temperature
Method: The assay was performed in accordance with the instruction manual of Angiotensin AT2 Receptor Ligand Binding Assay Kit (#C1TT1AT2, Cisbio). First, a compound stock solution (10 mM) was diluted in a gradient at a 5× dilution ratio (including 10 concentrations, each with two replicates). 160 nL of compounds at different concentrations was added to a 384-well plate. 40 μL of 1×TLB was added to each well, and the mixture was shaken at room temperature for 15 minutes. 15 mL centrifuge tube added with 5 mL of 1×TLB was prepared in advance. The frozen labeled cells were thawed in a water bath at 37° C. (for 1 to 2 minutes), and the thawed cells were quickly transferred to the above 15 mL centrifuge tube. The mixture was mixed well and centrifuged at 1,000 g at room temperature for 5 minutes. The supernatant was removed, and the cells were resuspended by adding 2.7 mL 1×TLB. A new 384-well plate was taken, and 10 μL of mixed cells were added into the corresponding wells according to the assay design. 5 μL of 4× compound solution and 5 μL of 4× Tag-lite red fluorescent labeled ligand were added to each well. After incubation at room temperature for 1 hour, data were read using EnVision with an HTRF mode. The excitation light intensities at 665 nM and 615 nM in each well were read respectively, and the ratio was calculated (Ratio=A665nMIB615 nM). The IC50 value was calculated by means of GraphPad Prism8 software, where X represents logarithmic value of compound concentration; and Y represents ratio of A665 nM/B615 nM.

CYP1A2 = CYP1A2 (Homo sapiens (Human), UniProt P05177); experiment: CYP inhibition assay in mixed human liver microsomes; type: in vitro ADME
CYP1A2, sequence (P05177 whole entry): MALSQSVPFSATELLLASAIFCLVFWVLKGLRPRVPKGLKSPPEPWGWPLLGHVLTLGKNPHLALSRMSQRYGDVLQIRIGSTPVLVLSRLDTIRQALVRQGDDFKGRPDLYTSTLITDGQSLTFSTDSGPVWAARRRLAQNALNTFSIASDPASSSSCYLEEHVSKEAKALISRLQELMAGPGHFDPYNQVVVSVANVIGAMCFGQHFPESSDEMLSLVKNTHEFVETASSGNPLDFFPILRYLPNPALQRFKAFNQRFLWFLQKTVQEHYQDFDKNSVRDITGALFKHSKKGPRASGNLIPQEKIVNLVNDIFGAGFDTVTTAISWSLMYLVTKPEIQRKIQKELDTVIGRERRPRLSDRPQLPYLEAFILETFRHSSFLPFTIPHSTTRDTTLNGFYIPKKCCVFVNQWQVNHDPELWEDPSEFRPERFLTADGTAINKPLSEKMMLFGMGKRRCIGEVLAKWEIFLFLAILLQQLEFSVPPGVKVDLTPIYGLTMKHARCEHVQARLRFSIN
Method: (§1) The inhibitory effects of the compounds on seven enzymes, i.e., CYP1A2, CYP2C9, CYP2C19, CYP2D6, CYP3A4 (midazolam), CYP2B6, and CYP2C8, were evaluated at a concentration of 10 μM. Mixed human liver microsomes, which were previously stored in a −80° C. refrigerator before use, were taken out and thawed in a water bath at 37° C. before use, and placed on ice for further operation. 100 μL of microsome working solution was taken, and added with 2 μL of test product or positive inhibitor working solution. 2 μL of solvent was added to the solvent control. The mixture was pre-incubated in a water bath at 37° C. for 10 minutes. After preincubation, 98 μL of NADPH regeneration solution was added to all samples to initiate the reaction. Then, the samples were put back into the water bath and incubated for a period of time. The reaction was quenched with 200 μL of stop solution. The plate was centrifuged at 3,220 g for 10 minutes, 100 μL of supernatant was transferred, and 100 μL of water was added and mixed well to the assay plate for LC/MS/MS analysis.

CYP2B6 = CYP2B6 (Homo sapiens (Human), UniProt P20813); experiment: as above; type: in vitro ADME; conditions: mixed (pooled) human liver microsomes, read-out: Inhibition rate % CYP2B6
CYP2B6, sequence (P20813 whole entry): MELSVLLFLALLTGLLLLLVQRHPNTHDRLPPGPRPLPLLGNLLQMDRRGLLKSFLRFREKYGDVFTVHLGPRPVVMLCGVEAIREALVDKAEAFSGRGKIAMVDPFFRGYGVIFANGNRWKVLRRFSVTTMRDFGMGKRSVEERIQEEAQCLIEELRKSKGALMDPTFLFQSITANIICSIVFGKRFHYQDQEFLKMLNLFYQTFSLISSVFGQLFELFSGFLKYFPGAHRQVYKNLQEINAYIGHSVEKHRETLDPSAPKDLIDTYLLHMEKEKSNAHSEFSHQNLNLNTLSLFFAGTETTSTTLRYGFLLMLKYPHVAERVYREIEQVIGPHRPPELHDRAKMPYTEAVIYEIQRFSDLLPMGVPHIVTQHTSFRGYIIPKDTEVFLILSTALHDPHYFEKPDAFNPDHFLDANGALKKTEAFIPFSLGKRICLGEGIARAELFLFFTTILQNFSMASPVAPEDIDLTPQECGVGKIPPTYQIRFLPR
Method: as §1

CYP2C19 = CYP2C19 (Homo sapiens (Human), UniProt P33261); experiment: as above; type: in vitro ADME; conditions: mixed (pooled) human liver microsomes, read-out: Inhibition rate % CYP2C19
CYP2C19, sequence (P33261 whole entry): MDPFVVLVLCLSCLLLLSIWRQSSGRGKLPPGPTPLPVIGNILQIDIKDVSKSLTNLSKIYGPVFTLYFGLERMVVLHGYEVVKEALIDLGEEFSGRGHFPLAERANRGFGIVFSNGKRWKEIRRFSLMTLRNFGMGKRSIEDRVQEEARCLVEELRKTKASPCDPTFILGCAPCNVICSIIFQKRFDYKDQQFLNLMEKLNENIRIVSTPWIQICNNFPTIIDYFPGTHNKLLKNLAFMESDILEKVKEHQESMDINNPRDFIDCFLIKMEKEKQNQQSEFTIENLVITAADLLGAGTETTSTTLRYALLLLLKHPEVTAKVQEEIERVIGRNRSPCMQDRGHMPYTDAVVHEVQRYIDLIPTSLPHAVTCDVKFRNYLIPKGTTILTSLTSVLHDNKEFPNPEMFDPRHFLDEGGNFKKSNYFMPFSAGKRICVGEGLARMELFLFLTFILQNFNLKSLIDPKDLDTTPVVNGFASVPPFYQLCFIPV
Method: as §1

CYP2C8 = CYP2C8 (Homo sapiens (Human), UniProt P10632); experiment: as above; type: in vitro ADME; conditions: mixed (pooled) human liver microsomes, read-out: Inhibition rate % CYP2C8
CYP2C8, sequence (P10632 whole entry): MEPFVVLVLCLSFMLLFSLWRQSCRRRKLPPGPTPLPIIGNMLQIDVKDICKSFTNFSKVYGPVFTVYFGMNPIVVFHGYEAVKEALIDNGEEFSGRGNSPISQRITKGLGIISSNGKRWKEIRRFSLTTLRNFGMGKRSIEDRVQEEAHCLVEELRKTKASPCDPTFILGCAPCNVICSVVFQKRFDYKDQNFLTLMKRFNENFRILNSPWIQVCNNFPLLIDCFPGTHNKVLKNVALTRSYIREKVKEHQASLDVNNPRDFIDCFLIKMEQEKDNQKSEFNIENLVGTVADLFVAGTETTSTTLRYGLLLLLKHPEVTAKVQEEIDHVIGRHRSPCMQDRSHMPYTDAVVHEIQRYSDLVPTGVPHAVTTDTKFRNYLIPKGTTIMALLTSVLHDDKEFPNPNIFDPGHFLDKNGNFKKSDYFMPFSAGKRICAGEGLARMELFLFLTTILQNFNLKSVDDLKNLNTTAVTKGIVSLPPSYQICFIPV
Method: as §1

CYP2C9 = CYP2C9 (Homo sapiens (Human), UniProt P11712); experiment: as above; type: in vitro ADME; conditions: mixed (pooled) human liver microsomes, read-out: Inhibition rate % CYP2C9
CYP2C9, sequence (P11712 whole entry): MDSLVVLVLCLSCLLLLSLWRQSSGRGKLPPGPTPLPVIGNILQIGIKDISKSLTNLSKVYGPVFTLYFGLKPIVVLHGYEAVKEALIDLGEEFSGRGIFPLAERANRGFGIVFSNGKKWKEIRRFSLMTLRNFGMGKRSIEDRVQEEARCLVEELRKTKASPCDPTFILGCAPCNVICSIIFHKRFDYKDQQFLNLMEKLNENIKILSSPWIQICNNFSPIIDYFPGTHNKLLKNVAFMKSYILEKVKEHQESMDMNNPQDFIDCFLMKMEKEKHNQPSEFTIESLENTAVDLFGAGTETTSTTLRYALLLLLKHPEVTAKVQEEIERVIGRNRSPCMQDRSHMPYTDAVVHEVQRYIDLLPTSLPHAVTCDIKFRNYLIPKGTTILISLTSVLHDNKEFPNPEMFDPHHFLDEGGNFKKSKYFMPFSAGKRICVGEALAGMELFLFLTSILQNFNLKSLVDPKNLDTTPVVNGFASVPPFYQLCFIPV
Method: as §1

CYP2D6 = CYP2D6 (Homo sapiens (Human), UniProt P10635); experiment: as above; type: in vitro ADME; conditions: mixed (pooled) human liver microsomes, read-out: Inhibition rate % CYP2D6
CYP2D6, sequence (P10635 whole entry): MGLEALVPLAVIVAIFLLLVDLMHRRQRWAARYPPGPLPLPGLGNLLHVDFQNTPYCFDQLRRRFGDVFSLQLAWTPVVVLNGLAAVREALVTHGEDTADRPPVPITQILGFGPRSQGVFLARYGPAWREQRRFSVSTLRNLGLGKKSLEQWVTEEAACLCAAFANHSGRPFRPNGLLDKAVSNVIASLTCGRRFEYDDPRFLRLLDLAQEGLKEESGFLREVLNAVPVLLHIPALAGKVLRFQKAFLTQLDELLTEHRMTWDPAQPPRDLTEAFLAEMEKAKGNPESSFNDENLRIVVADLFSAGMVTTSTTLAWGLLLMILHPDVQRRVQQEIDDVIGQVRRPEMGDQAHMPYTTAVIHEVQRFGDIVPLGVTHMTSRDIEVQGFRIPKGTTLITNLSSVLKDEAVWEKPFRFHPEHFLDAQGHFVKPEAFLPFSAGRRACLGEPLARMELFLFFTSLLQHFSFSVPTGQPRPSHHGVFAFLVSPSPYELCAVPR
Method: as §1

CYP3A4 = CYP3A4 (Homo sapiens (Human), UniProt P08684); experiment: as above; type: in vitro ADME; conditions: mixed (pooled) human liver microsomes, probe midazolam, read-out: Inhibition rate % CYP3A4 (midazolam)
CYP3A4, sequence (P08684 whole entry): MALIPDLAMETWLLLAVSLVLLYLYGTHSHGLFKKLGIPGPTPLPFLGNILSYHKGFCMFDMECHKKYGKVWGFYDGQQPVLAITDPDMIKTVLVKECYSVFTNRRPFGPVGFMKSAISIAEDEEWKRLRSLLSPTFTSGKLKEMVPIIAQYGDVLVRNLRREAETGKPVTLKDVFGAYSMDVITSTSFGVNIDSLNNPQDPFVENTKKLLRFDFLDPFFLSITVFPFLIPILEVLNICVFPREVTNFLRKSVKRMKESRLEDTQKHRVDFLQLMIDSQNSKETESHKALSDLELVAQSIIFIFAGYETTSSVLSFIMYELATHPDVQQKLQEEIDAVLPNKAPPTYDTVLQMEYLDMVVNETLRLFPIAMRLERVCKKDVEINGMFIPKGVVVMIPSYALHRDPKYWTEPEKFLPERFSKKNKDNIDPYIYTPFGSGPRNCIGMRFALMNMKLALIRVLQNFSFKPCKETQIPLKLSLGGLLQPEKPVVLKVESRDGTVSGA
Method: as §1

[1] = Liver microsome stability assay; type: in vitro ADME; conditions: Human liver microsomes, NADPH, 37° C.; read-out: T1/2 (min) Human
Method: The human liver microsome stability assay was performed by co-incubating the compound with human liver microsomes in vitro. The test compounds were first prepared as 10 mM stock solutions in DMSO solvent, and then diluted to 0.5 mM with acetonitrile. Human liver microsomes (Corning) were diluted with PBS to prepare a microsome/buffer solution, and this solution was used to dilute 0.5 mM of the compound to prepare a working solution. In the working solution, a concentration of the compound was 1.5 μM and a concentration of the human liver microsome was 0.75 mg/ml. A deep-well plate was taken, 30 μL of working solution was added to each well of the plate, and then 15 μL of pre-heated NADPH solution (6 mM) was added to start the reaction. The mixture was incubated at 37° C. 135 μL of acetonitrile was added to the corresponding wells to stop the reaction at 0 minute, 5 minutes, 15 minutes, 30 minute, and 45 minutes of incubation. Subsequent to the stop of the reaction by means of acetonitrile at the last time point of 45 minute, the plate was vortexed for 10 minutes (600 rpm/min) and then centrifuged for 15 minutes. […] The peak area ratios of the compound at 5 minutes, 15 minutes, 30 minutes, and 45 minutes were compared with the peak area ratio at 0 minute, and the remaining percentage of the compound at each time point was calculated. T1/2 was calculated using Graphpad8 software.

AT2R, sequence (P50052 whole entry): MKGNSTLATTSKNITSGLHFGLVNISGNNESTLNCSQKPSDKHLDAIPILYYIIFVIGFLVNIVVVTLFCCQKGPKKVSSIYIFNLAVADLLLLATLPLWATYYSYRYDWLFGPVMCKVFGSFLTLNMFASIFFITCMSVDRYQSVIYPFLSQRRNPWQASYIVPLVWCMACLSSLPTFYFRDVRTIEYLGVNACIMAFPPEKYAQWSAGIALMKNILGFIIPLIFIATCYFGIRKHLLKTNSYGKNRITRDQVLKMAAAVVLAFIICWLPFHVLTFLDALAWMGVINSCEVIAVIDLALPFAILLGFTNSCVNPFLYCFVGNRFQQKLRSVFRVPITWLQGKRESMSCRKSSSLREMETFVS

- IC50 (AT2R): 4.32 nM
- inhibition at 10 µM (CYP1A2): 2.82%
- inhibition at 10 µM (CYP2B6): 13.7%
- inhibition at 10 µM (CYP2C19): 36.5%
- inhibition at 10 µM (CYP2C8): 71.8%
- inhibition at 10 µM (CYP2C9): 77.3%
- inhibition at 10 µM (CYP2D6): 12.6%
- inhibition at 10 µM (CYP3A4): 3.8%
- half-life at 1 μM [1]: 45 min
SMILES: COC(=O)NS(=O)(=O)c1sc(CC(C)C)c(C)c1-c1ccc(Cn2ccnc2Cl)cc1 [Compound I-34, Methyl ((3-(4-((2-chloro-1H-imidazol-1-yl)methyl)phenyl)-5-isobutyl-4-methylthiophen-2-yl)sulfonyl)carbamate]
